Results from US10131669B2, “Pyrazolopyrimidine compounds” (Pfizer Inc., priority 2014, dated 2018).
Structures can show the parent of a compound that is named as a salt.

Key:
Format in all cases: biochemical
[1] = biological target: T1, human PDE4D3 (Homo sapiens, UniProt Q08499); assay: PDE4D3 Scintillation Proximity Assay (SPA), inhibition of enzyme activity; details: geometric mean of 2-7 determinations unless otherwise indicated (b: ≥8 determinations; c: single determination); 1 μM cAMP, 30 min at 25° C.; read-out: Human PDE4D FL; IC50
T1 construct: His6 (C); made in house; host or cells: insect cells (baculovirus, pFastBac)
Description: The recombinant Bacmid was isolated and used to transfect insect cells to generate a viral stock. To generate cell paste for purification, insect cells were infected and cells were harvested 72 hours after infection. Insect cell paste was lysed and after centrifugation, the supernatant was chromatographed on Ni-NTA agarose (Qiagen) as described in Seeger, T. F. et al., Brain Research 985 (2003) 113-126. Ni-NTA agarose eluting fractions containing PDE4 were pooled, diluted with Q Buffer A (50 mM Tris HCl pH 8, 4% glycerol, 100 mM NaCl, 1 mM TCEP, Protease inhibitors EDTA-free (Roche)) to reduce NaCl to ˜200 mM, and loaded on a Q Sepharose (GE Healthcare) column. After washing with Q buffer A to baseline, PDE4D was eluted with a gradient from 10% to 60% of Buffer B (50 mM Tris HCl pH 8, 1 M NaCl, 4% glycerol, 1 mM TCEP). PDE4D fractions were analyzed by SDS-PAGE Coomassie blue staining, pooled based on purity, frozen and stored at −80° C.
(§1) The PDE4A3, PDE4B1, PDE4C1 and PDE4D3 assays use the Scintillation Proximity Assay (SPA) technology to measure the inhibition of human recombinant […], PDE4C1, and PDE4D3 enzyme activity by compounds in vitro. The PDE4A1, PDE4B3, PDE4C1, and PDE4D3 assays are run in parallel using identical parameters, except for the concentration of enzyme (80 pM PDE4A3, 40 pM PDE4B3, 40 pM PDE4C1 and 10 pM PDE4D). The assays are performed in a 384-well format with 50 uL assay buffer (50 mM TRIS pH7.5; 1.3 mM MgCl2; 0.01% Brij) containing enough PDE4A3, PDE4B1, PDE4C1, and PDE4D to convert ˜20% of substrate (1 μM cAMP consisting of 20 nM 3H-cAMP+[…] cold cAMP) and a range of inhibitors. Reactions are incubated for 30 min at 25° C. The addition of 20 uL of 8 mg/ml yitrium silicate SPA beads (Perkin Elmer) stops the reaction. The plates are sealed (TopSeal, Perkin Elmer) and the beads are allowed to settle for 8 hrs, after which they are read on the Trilux Microbeta overnight.

[2] = biological target: T2, Human PDE4B1 (Homo sapiens, UniProt Q07343, S133E/S654A/S659A/S661A); assay: PDE4B1 Scintillation Proximity Assay (SPA), inhibition of enzyme activity; details: geometric mean of 2-7 determinations unless otherwise indicated (b: ≥8 determinations; c: single determination); 1 μM cAMP, 30 min at 25° C.; read-out: Human PDE4B FL; IC50
T2 construct: His6 (N); thrombin cleavage site (N); made in house; host or cells: insect cells (baculovirus, pFastBac)
Description: The recombinant Bacmid was isolated and used to transfect insect cells to generate a viral stock. To generate cell paste for purification, insect cells were infected with the virus stock and cells were harvested 72 hours after infection as described in Seeger, T. F. et al., Brain Research 985 (2003) 113-126. Insect cell paste was lysed and after centrifugation, the supernatant was chromatographed on Ni-NTA agarose (Qiagen) as described in Seeger, T. F. et al., Brain Research 985 (2003) 113-126. Ni-NTA agarose eluting fractions containing PDE4 were pooled, diluted with Q buffer A (20 mM Tris HCl pH 8, 5% glycerol, 1 mM TCEP) to reduce NaCl to ˜100 mM and loaded on a Source 15Q (GE Healthcare) column. After washing with Q buffer A/10% buffer B to baseline, PDE4D was eluted with a gradient from 10% to 60% of Buffer B (20 mM Tris HCl pH 8, 1 M NaCl, 5% glycerol, 1 mM TCEP). PDE4D fractions were analyzed by SDS-PAGE Coomassie blue staining, pooled based on purity, frozen and stored at −80° C.
as §1

[3] = biological target: T3, Human PDE4A3 (Homo sapiens, UniProt P27815); assay: PDE4A3 Scintillation Proximity Assay (SPA), inhibition of enzyme activity; details: geometric mean of 2-7 determinations unless otherwise indicated (b: ≥8 determinations; c: single determination), 1 μM cAMP, 30 min at 25° C., read-out: Human PDE4A FL
T3 construct: His6 (N); FLAG (C); made in house; host or cells: insect cells (baculovirus, pFastBac)
Excerpt: (§2) Human PDE4A3 coding sequence (amino acids 2 to 825 from the sequence with accession number NP_001104779) was cloned into the baculovirus expression vector pFastBac (Invitrogen) engineered to include an N-terminal His6 affinity tag and a c-terminal FLAG affinity tag to aid in purification. The recombinant Bacmid was isolated and used to transfect insect cells to generate a viral stock. To generate cell paste for purification, insect cells were infected with the virus stock and cells were harvested 72 hours after infection. Insect cell paste was lysed and after centrifugation, the supernatant was batch bound to Ni-NTA agarose (GE Healthcare) and eluted with 250 mM imidazole. This eluate was diluted with FLAG buffer (50 mM Tris HCL pH 7.5, 100 mM NaCl, 5% Glycerol, 1 mM TCEP with protease inhibitors) and batch bound to ant-FLAG M2 agarose (Sigma) overnight at 4° C. The agarose was packed into a column, washed with buffer and eluted with buffer containing elute using 250 ug/ml Flag-peptide. Fractions were analyzed using SDS-PAGE Coomassie blue staining and pooled based on purity. Pooled fractions were chromatographed on a S200 120 ml column (GE Healthcare) in 50 mM Tris HCL pH 7.5, 150 mM NaCl, 10% Glycerol, 2 mM TCEP with protease inhibitors. PDE4A3 fractions were analyzed by SDS-PAGE Coomassie blue staining, pooled based on purity, dialyzed against 50 mM Tris HCL pH 7.5, 100 mM NaCl, 20% Glycerol, 2 mM TCEP, frozen and stored at −80° C.
as §1

[4] = biological target: T4, Human PDE4C1 (Homo sapiens, UniProt Q08493); assay: PDE4C1 Scintillation Proximity Assay (SPA), inhibition of enzyme activity; details: geometric mean of 2-7 determinations unless otherwise indicated (b: ≥8 determinations; c: single determination), 1 μM cAMP, 30 min at 25° C., read-out: Human PDE4C FL
T4 construct: His6 (N); FLAG (C); made in house; host or cells: insect cells (baculovirus, pFastBac)
Description: as §2, with “The” for “Human PDE4A3 coding sequence (amino acids 2 to 825 from the sequence with accession number NP_001104779) was cloned into the baculovirus expression vector pFastBac (Invitrogen) engineered to include an N-terminal His6 affinity tag and a c-terminal FLAG affinity tag to aid in purification. The”, “PDE4C1” for “PDE4A3”
as §1

T4 sequence (Q08493 2-712): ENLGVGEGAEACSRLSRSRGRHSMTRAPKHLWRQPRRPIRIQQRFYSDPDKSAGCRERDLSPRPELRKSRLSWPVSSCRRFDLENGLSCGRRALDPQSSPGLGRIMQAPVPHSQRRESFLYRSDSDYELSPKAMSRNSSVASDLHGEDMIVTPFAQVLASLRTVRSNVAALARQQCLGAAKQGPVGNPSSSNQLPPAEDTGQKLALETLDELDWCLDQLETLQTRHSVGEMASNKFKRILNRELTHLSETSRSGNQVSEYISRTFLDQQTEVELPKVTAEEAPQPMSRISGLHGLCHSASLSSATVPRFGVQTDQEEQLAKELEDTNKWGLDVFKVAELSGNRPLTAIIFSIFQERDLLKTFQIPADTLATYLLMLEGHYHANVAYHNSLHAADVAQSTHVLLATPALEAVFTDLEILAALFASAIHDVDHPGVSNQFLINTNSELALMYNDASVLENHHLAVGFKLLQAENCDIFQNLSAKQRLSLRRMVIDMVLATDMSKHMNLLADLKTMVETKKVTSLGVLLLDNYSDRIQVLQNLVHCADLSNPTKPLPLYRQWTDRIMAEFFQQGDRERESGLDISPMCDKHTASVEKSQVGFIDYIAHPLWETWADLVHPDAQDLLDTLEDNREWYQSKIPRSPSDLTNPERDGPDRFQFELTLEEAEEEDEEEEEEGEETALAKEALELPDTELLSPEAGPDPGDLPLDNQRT
T1 sequence (Q08499 186-808): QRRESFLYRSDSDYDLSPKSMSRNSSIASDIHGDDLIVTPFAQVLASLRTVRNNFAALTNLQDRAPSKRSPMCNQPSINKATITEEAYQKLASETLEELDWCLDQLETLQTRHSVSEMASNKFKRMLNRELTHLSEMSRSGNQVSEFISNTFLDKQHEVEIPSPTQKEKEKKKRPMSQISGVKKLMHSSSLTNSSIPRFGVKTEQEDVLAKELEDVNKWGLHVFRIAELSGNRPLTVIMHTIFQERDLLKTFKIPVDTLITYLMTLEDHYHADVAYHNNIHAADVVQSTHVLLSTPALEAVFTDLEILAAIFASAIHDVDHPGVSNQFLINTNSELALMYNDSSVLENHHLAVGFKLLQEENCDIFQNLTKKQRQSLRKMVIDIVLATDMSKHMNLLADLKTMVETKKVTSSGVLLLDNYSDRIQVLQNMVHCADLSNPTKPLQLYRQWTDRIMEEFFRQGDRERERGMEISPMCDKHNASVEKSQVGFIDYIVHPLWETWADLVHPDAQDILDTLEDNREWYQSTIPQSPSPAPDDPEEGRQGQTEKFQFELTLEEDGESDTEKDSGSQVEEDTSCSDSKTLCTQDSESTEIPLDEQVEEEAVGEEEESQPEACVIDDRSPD
T2 sequence (Q07343 122-736 S133E/S654A/S659A/S661A): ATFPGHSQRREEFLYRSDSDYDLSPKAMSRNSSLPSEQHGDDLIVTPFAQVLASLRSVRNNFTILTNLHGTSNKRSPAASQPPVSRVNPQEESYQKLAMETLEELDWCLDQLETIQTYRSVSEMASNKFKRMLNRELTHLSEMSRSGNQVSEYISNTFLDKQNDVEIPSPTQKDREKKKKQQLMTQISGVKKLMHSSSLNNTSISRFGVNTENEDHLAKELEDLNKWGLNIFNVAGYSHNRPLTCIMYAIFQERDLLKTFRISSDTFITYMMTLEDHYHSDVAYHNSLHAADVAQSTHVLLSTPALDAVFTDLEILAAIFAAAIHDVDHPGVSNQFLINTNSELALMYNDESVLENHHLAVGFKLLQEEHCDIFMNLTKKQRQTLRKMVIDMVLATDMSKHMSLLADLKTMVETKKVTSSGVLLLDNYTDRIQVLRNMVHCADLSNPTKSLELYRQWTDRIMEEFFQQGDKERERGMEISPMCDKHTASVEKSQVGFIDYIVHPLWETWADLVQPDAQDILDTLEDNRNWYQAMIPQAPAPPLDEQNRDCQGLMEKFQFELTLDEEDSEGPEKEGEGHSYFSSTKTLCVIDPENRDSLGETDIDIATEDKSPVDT
T3 sequence (P27815 2-825 isoform P27815-6): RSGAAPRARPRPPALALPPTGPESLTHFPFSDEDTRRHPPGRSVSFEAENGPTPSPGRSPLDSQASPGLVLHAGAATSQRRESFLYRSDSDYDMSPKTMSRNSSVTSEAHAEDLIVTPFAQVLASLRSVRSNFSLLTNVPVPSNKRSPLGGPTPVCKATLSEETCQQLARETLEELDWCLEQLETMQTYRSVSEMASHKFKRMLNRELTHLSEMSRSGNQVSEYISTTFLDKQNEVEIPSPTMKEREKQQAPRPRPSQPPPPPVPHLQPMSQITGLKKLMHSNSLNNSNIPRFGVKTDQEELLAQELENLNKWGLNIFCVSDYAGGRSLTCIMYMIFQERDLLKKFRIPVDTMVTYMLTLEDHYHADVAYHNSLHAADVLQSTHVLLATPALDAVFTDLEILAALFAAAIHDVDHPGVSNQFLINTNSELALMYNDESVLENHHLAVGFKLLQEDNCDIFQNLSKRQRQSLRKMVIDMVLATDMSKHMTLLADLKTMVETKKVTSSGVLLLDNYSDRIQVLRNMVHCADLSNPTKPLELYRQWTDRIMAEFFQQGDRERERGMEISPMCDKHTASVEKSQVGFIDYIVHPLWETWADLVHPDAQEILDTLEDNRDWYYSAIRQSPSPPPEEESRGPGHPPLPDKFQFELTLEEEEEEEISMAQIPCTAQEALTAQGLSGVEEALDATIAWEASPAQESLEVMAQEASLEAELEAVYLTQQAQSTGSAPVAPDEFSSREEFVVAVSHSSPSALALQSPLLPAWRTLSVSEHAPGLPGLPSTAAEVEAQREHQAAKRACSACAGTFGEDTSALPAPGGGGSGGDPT

Row | IC50 [1] | IC50 [2] | IC50 [3] | IC50 [4] | SMILES
1 | 140 nM | 3.7 nM | 14.4 nM | 19.9 nM | O=C(N[C@@H]1C[C@@H]1F)c1nn2cccnc2c1-c1ccc(Cl)c(F)c1 [Example 28, 3-(4-chloro-3-fluorophenyl)-N-[(1R,2S)-2-fluorocyclopropyl]pyrazolo[1,5-a]pyrimidine-2-carboxamide]
2 | 2120 nM | 51 nM | 36.2 nM | 106 nM | O=C(NC1CC1)c1nn2cccnc2c1-c1cccc(Cl)c1 [Example 31, 3-(3-chlorophenyl)-N-cyclopropylpyrazolo[1,5-a]pyrimidine-2-carboxamide, hydrochloride salt]
3 | > 12300 nM | 138 nM | 120 nM | 449 nM | CC1CC1NC(=O)c1nn2cccnc2c1-c1ccc(Cl)cc1 (stereo not shown) [Example 34, 3-(4-chlorophenyl)-N-(2-methylcyclopropyl)pyrazolo[1,5-a]pyrimidine-2-carboxamide]
4 | > 30000 nM | 1860 nM | 1110 nM | 710 nM | CN(C(=O)c1nn2cccnc2c1-c1ccc(Cl)cc1)C1CC1 [Example 35, 3-(4-chlorophenyl)-N-cyclopropyl-N-methylpyrazolo[1,5-a]pyrimidine-2-carboxamide, hydrochloride salt]
5 | > 14400 nM | 221 nM | 146 nM | 178 nM | O=C(NC1CC1)c1nn2cccnc2c1-c1ccc2ncoc2c1 [Example 43, 3-(1,3-benzoxazol-6-yl)-N-cyclopropylpyrazolo[1,5-a]pyrimidine-2-carboxamide]
6 | 1320 nM | 51 nM | 22 nM | 42.1 nM | N#Cc1cc(F)c(-c2c(C(=O)NC3CC3)nn3cccnc23)cc1F [Example 45, 3-(4-cyano-2,5-difluorophenyl)-N-cyclopropylpyrazolo[1,5-a]pyrimidine-2-carboxamide]
7 | 979 nM | 54.5 nM | 14.7 nM | 44 nM | N#Cc1cc(F)c(-c2c(C(=O)N3CCC3)nn3cccnc23)cc1F [Example 46, 4-[2-(azetidin-1-ylcarbonyl)pyrazolo[1,5-a]pyrimidin-3-yl]-2,5-difluorobenzonitrile]

Further lines, the compound ahead of its results:

Row | SMILES | IC50 [1] | IC50 [2] | IC50 [3] | IC50 [4]
8 | O=C(NC1CC1)c1nn2cccnc2c1-c1cc(F)c(Cl)c(F)c1 [Example 33, 3-(4-chloro-3,5-difluorophenyl)-N-cyclopropylpyrazolo[1,5-a]pyrimidine-2-carboxamide, hydrochloride salt] | 408 nM | 3.3 nM | 92.6 nM | 170 nM
9 | O=C(NC1(C(F)(F)F)CC1)c1nn2cccnc2c1-c1ccc(Cl)cc1 [Example 36, 3-(4-chlorophenyl)-N-[1-(trifluoromethyl)cyclopropyl]pyrazolo[1,5-a]pyrimidine-2-carboxamide, hydrochloride salt] | > 25200 nM | 452 nM | 67.2 nM | 452 nM
10 | O=C(NC1CC1(F)F)c1nn2cccnc2c1-c1ccc(Cl)c(F)c1 (stereo not shown) [Example 39, 3-(4-chloro-3-fluorophenyl)-N-(2,2-difluorocyclopropyl)pyrazolo[1,5-a]pyrimidine-2-carboxamide] | 300 nM | 12.9 nM | 23.2 nM | 66.3 nM
11 | COc1cc(-c2c(C(=O)NC3CC3)nn3cccnc23)ccn1 [Example 42, N-cyclopropyl-3-(2-methoxypyridin-4-yl)pyrazolo[1,5-a]pyrimidine-2-carboxamide] | > 18400 nM | 474 nM | 212 nM | 1190 nM
12 | N#Cc1ccc(-c2c(C(=O)NC3CC3)nn3cccnc23)cn1 [Example 44, 3-(6-cyanopyridin-3-yl)-N-cyclopropylpyrazolo[1,5-a]pyrimidine-2-carboxamide] | > 11900 nM | 358 nM | 192 nM | 898 nM
13 | O=C(NC1CC1)c1nn2cccnc2c1-c1cc(F)c(Cl)cc1F [Example 47, 3-(4-chloro-2,5-difluorophenyl)-N-cyclopropylpyrazolo[1,5-a]pyrimidine-2-carboxamide] | 819 nM | 24.4 nM | 4.69 nM | 13.9 nM
14 | O=C(c1nn2cccnc2c1-c1cccc(Cl)c1)N1CCC1 [Example 48, azetidin-1-yl[3-(3-chlorophenyl)pyrazolo[1,5-a]pyrimidin-2-yl]methanone] | > 16000 nM | 236 nM | 167 nM | 76.4 nM
15 | O=C(c1nn2cccnc2c1-c1cc(F)c(Cl)cc1F)N1CCC1 [Example 49, azetidin-1-yl[3-(4-chloro-2,5-difluorophenyl)pyrazolo[1,5-a]pyrimidin-2-yl]methanone] | 1290 nM | 63.5 nM | 7.28 nM | 29.6 nM
16 | CCNC(=O)c1nn2cccnc2c1-c1ccnc(OC(F)F)c1 [Example 50, 3-[2-(difluoromethoxy)pyridin-4-yl]-N-ethylpyrazolo[1,5-a]pyrimidine-2-carboxamide] | > 4870 nM | 48.3 nM | 17.7 nM | 70.8 nM
